ChEMBL document CHEMBL1201862, “PubChem BioAssay data set” (2004)
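Cells were grown in 96-well plates and exposed to each compound for 48 hours at five concentrations; endpoints were interpolated linearly between bracketing concentrations, or set to the highest concentration if not reached. GI50 is the concentration that inhibits growth by half.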 Active and inactive are the calls of the source. Rule as the data show it: active = GI50 up to about 1.1 µM and inactive = higher.

Experiments:
Test in all cases: NCI-60 cell line screen, 48 h
786-0 = test system: 786-0
A549 = test system: A549
ACHN = test system: ACHN
CAKI-1 = test system: CAKI-1
CCRF-CEM = test system: CCRF-CEM
COLO 205 = test system: COLO 205
DLD-1 = test system: DLD-1
DMS-114 = test system: DMS-114
EKVX = test system: EKVX
HCT-116 = test system: HCT-116
HCT-15 = test system: HCT-15
HL-60 = test system: HL-60
HOP-18 = test system: HOP-18
HOP-62 = test system: HOP-62
HOP-92 = test system: HOP-92
HT-29 = test system: HT-29
IGROV-1 = test system: IGROV-1
K562 = test system: K562
KM-20L2 = test system: KM-20L2
KM12 = test system: KM12
LXFL 529 = test system: LXFL 529
M14 = test system: M14
M19-MEL = test system: M19-MEL
MOLT-4 = test system: MOLT-4
Malme-3M = test system: Malme-3M
NCI-H226 = test system: NCI-H226
NCI-H23 = test system: NCI-H23
NCI-H460 = test system: NCI-H460
NCI-H522 = test system: NCI-H522
OVCAR-3 = test system: OVCAR-3
OVCAR-4 = test system: OVCAR-4
OVCAR-8 = test system: OVCAR-8
RPMI-8226 = test system: RPMI-8226
RXF 393 = test system: RXF 393
RXF 631 = test system: RXF 631
SF-268 = test system: SF-268
SF-295 = test system: SF-295
SF-539 = test system: SF-539
SK-MEL-28 = test system: SK-MEL-28
SK-MEL-2 = test system: SK-MEL-2
SK-MEL-5 = test system: SK-MEL-5
SK-OV-3 = test system: SK-OV-3
SN12C = test system: SN12C
SNB-19 = test system: SNB-19
SNB-75 = test system: SNB-75
SR = test system: SR
SW-620 = test system: SW-620
TK-10 = test system: TK-10
U-251 = test system: U-251
UACC-257 = test system: UACC-257
UACC-62 = test system: UACC-62
UO-31 = test system: UO-31
A498 = test system: A498
DMS-273 = test system: DMS-273
HCC 2998 = test system: HCC 2998
LOX IMVI = test system: LOX IMVI
OVCAR-5 = test system: OVCAR-5
SNB-78 = test system: SNB-78
XF498 = test system: XF498

Measured: GI50

CC1(C)COC(C2(C)C(=O)C=C(c3ccccc3)c3ccccc32)=N1 (configuration not stated)
27.4 µM: HCT-15
inactive: 786-0 59.8 µM | A549 33.3 µM | ACHN 34.9 µM | CAKI-1 42.6 µM | CCRF-CEM 35.5 µM | COLO 205 42.6 µM | DLD-1 66.4 µM | DMS-114 38.7 µM | EKVX 45.4 µM | HCT-116 44.1 µM | HL-60 27 µM | HOP-18 > 100 µM | HOP-62 64.9 µM | HOP-92 21.8 µM | HT-29 30.5 µM | IGROV-1 47.5 µM | K562 33.3 µM | KM-20L2 40.5 µM | KM12 47.3 µM | LXFL 529 41.3 µM | M14 46.1 µM | M19-MEL 42.8 µM | MOLT-4 25.8 µM | Malme-3M 11.5 µM | NCI-H226 52.1 µM | NCI-H23 47.1 µM | NCI-H460 36.9 µM | NCI-H522 35.5 µM | OVCAR-3 30.4 µM | OVCAR-4 34.8 µM | OVCAR-8 46.8 µM | RPMI-8226 34.9 µM | RXF 393 55.3 µM | RXF 631 33 µM | SF-268 58.2 µM | SF-295 37.9 µM | SF-539 43.6 µM | SK-MEL-28 42.9 µM | SK-MEL-2 37.3 µM | SK-MEL-5 > 100 µM | SK-OV-3 22.4 µM | SN12C 30.5 µM | SNB-19 50.5 µM | SNB-75 33.4 µM | SR 37.2 µM | SW-620 81.8 µM | TK-10 93.8 µM | U-251 59.4 µM | UACC-257 31.4 µM | UACC-62 54.3 µM | UO-31 28.3 µM

COC(=O)N/N=C(/Cc1occc(=O)c1O)C(=O)Nc1ccc([N+](=O)[O-])cc1[N+](=O)[O-]
> 100 µM: HCT-15
inactive: 786-0 > 100 µM | A498 > 100 µM | A549 > 100 µM | ACHN > 100 µM | CAKI-1 > 100 µM | CCRF-CEM > 100 µM | COLO 205 > 100 µM | DLD-1 > 100 µM | DMS-114 > 100 µM | DMS-273 > 100 µM | EKVX > 100 µM | HCC 2998 > 100 µM | HCT-116 > 100 µM | HL-60 > 100 µM | HOP-18 > 100 µM | HOP-62 > 100 µM | HOP-92 > 100 µM | HT-29 > 100 µM | IGROV-1 > 100 µM | K562 > 100 µM | KM-20L2 > 100 µM | KM12 > 100 µM | LOX IMVI > 100 µM | LXFL 529 > 100 µM | M14 > 100 µM | M19-MEL > 100 µM | MOLT-4 > 100 µM | Malme-3M > 100 µM | NCI-H226 > 100 µM | NCI-H23 > 100 µM | NCI-H460 > 100 µM | NCI-H522 > 100 µM | OVCAR-4 > 100 µM | OVCAR-5 > 100 µM | OVCAR-8 > 100 µM | RPMI-8226 > 100 µM | RXF 393 > 100 µM | SF-268 > 100 µM | SF-295 > 100 µM | SF-539 > 100 µM | SK-MEL-28 > 100 µM | SK-MEL-2 > 100 µM | SK-MEL-5 > 100 µM | SK-OV-3 > 100 µM | SN12C > 100 µM | SNB-19 > 100 µM | SNB-75 > 100 µM | SNB-78 > 100 µM | SR > 100 µM | SW-620 > 100 µM | TK-10 > 100 µM | U-251 > 100 µM | UACC-257 > 100 µM | UACC-62 > 100 µM | UO-31 > 100 µM | XF498 > 100 µM

CCCN(CCC)C1CC(n2cc(C)c(=O)[nH]c2=O)OC1CO (configuration not stated)
inactive: 786-0 > 100 µM | ACHN > 100 µM | CAKI-1 > 100 µM | CCRF-CEM > 100 µM | COLO 205 > 100 µM | DLD-1 > 100 µM | DMS-114 > 100 µM | DMS-273 > 100 µM | HCC 2998 > 100 µM | HCT-116 > 100 µM | HL-60 > 100 µM | HOP-62 > 100 µM | HOP-92 > 100 µM | IGROV-1 > 100 µM | K562 > 100 µM | LXFL 529 > 100 µM | M14 > 100 µM | M19-MEL > 100 µM | MOLT-4 > 100 µM | Malme-3M > 100 µM | NCI-H226 > 100 µM | NCI-H23 > 100 µM | NCI-H460 > 100 µM | NCI-H522 > 100 µM | OVCAR-4 > 100 µM | RPMI-8226 > 100 µM | RXF 631 > 100 µM | SF-268 > 100 µM | SF-539 > 100 µM | SK-MEL-28 > 100 µM | SK-MEL-2 > 100 µM | SK-OV-3 > 100 µM | SN12C > 100 µM | SNB-75 > 100 µM | SNB-78 > 100 µM | SR > 100 µM | UACC-62 > 100 µM | UO-31 > 100 µM

C/C(CC(=O)Nc1ccc(Cl)c(Cl)c1)=N/NC(=O)C[n+]1ccccc1
30.5 µM: HCT-15
inactive: 786-0 43.1 µM | A498 > 100 µM | A549 > 100 µM | ACHN > 100 µM | CAKI-1 > 100 µM | CCRF-CEM 85.3 µM | COLO 205 31.8 µM | DMS-114 28.4 µM | DMS-273 40.9 µM | EKVX > 100 µM | HCC 2998 > 100 µM | HCT-116 > 100 µM | HL-60 44.4 µM | HOP-18 > 100 µM | HOP-62 > 100 µM | HOP-92 > 100 µM | HT-29 > 100 µM | IGROV-1 > 100 µM | K562 45.8 µM | KM-20L2 76.9 µM | KM12 88.7 µM | LOX IMVI 18.8 µM | LXFL 529 66.7 µM | M14 > 100 µM | M19-MEL > 100 µM | MOLT-4 94.2 µM | Malme-3M > 100 µM | NCI-H226 > 100 µM | NCI-H23 > 100 µM | NCI-H460 77.4 µM | NCI-H522 68.2 µM | OVCAR-3 > 100 µM | OVCAR-4 > 100 µM | OVCAR-5 > 100 µM | OVCAR-8 > 100 µM | RPMI-8226 32.3 µM | RXF 393 > 100 µM | SF-268 > 100 µM | SF-295 > 100 µM | SF-539 > 100 µM | SK-MEL-28 > 100 µM | SK-MEL-2 > 100 µM | SK-MEL-5 > 100 µM | SK-OV-3 > 100 µM | SN12C > 100 µM | SNB-19 > 100 µM | SNB-78 > 100 µM | SR 23.7 µM | TK-10 > 100 µM | U-251 > 100 µM | UACC-257 > 100 µM | UACC-62 > 100 µM | UO-31 > 100 µM | XF498 > 100 µM
